Reference: patent publication US5753617A, “Peptide inhibitors of cellular adhesion” (Centocor, Inc., priority 1995, dated 1998)
Like-named read-outs stand apart in the source and are kept apart here. Each block holds one compound with its values, some of them ahead of it. Where a SMILES comes first, the peptide text is derived from it. Bridges are numbered along the chain shown (N, C = ends). [ ]: non-standard residue; d: D form. Ava = NCCCCC(=O)O

Key:
[1] = disulfide bond, water
[2] = biological target: T1, P-selectin (Homo sapiens, UniProt P16109); assay: Inhibition of human neutrophil adhesion to purified P-selectin immobilized on plastic wells; format: cell-based; conditions: inhibiting the binding of human neutrophils to P-selectin
T1 construct: P-selectin is isolated from human platelet lysates; from tissue; host or cells: human platelets (outdated platelet packs from a blood bank)
T1 sequence (P16109 42-830): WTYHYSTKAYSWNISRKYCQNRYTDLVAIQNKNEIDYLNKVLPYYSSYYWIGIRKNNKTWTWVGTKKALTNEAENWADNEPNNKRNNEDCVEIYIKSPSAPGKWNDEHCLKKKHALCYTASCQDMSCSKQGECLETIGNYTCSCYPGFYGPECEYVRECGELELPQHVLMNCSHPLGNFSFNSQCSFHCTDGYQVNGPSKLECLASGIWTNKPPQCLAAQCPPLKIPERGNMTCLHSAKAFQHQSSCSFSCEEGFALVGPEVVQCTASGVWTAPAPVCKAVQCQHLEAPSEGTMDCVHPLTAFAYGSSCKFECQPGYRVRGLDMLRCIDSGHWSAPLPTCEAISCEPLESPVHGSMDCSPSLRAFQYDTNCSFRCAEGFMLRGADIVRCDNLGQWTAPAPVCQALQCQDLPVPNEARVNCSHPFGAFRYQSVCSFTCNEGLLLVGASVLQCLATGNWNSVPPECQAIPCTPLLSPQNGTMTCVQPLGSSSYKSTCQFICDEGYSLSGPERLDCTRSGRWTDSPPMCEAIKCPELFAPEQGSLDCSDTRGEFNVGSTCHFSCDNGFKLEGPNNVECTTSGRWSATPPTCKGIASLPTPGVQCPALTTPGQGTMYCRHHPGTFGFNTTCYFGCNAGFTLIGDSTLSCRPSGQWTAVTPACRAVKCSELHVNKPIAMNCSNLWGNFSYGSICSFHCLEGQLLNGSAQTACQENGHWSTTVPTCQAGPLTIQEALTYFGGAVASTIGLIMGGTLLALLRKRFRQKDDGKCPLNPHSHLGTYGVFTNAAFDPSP
In short: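 Isolated human neutrophils (2×10^5 per well) in HBSS with Ca2+/Mg2+ and HSA added to wells coated overnight at 4° C with platelet-derived P-selectin (5 micrograms/mL), HSA-blocked; 20 min at 22° C. Nonadherent cells removed by inverted centrifugation at 150 g; adherent cells quantified by myeloperoxidase activity.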

Compound: CC(C)[C@@H](NC(=O)[C@@H](Cc1c[nH]c2ccccc12)NC(=O)[C@H](NC(=O)[C@@H](Cc1c[nH]c2ccccc12)NC(=O)[C@H]1CSSC[C@@H](NC(=O)[C@@H](CCCCN)NC(=O)[C@H](N)CCCNC(=N)N)C(=O)NCC(=O)N[C@@H](Cc2ccccc2)C(=O)N1)[C@H](C)O)C(N)=O
- ring closure, yield of all isomers ([1]; from CC(C)[C@@H](NC(=O)[C@@H](Cc1c[nH]c2ccccc12)NC(=O)[C@H](NC(=O)[C@@H](Cc1c[nH]c2ccccc12)NC(=O)[C@@H](CS)NC(=O)[C@H](Cc1ccccc1)NC(=O)CNC(=O)[C@@H](CS)NC(=O)[C@@H](CCCCN)NC(=O)[C@H](N)CCCNC(=N)N)[C@H](C)O)C(N)=O, DMSO, 0.253 mM, 16.0 h): 10.8%

Compound: CC(C)[C@H](NC(=O)[C@@H](Cc1c[nH]c2ccccc12)NC(=O)[C@H](NC(=O)[C@@H](Cc1c[nH]c2ccccc12)NC(=O)[C@H]1CSSC[C@@H](NC(=O)[C@@H](CCCCN)NC(=O)[C@H](N)CCCNC(=N)N)C(=O)NCC(=O)N[C@@H](Cc2ccccc2)C(=O)N1)[C@H](C)O)C(N)=O
- ring closure, yield of all isomers ([1]; from CC(C)[C@H](NC(=O)[C@@H](Cc1c[nH]c2ccccc12)NC(=O)[C@H](NC(=O)[C@@H](Cc1c[nH]c2ccccc12)NC(=O)[C@@H](CS)NC(=O)[C@H](Cc1ccccc1)NC(=O)CNC(=O)[C@@H](CS)NC(=O)[C@@H](CCCCN)NC(=O)[C@H](N)CCCNC(=N)N)[C@H](C)O)C(N)=O, DMSO, 0.161 mM): 9.4%

Compound: CC(C)[C@@H](NC(=O)[C@@H](Cc1c[nH]c2ccccc12)NC(=O)[C@H](NC(=O)[C@@H](Cc1c[nH]c2ccccc12)NC(=O)[C@H]1CSSC[C@@H](NC(=O)[C@@H](CCCCN)NC(=O)[C@H](N)CCCNC(=N)N)C(=O)NCC(=O)N[C@H](Cc2ccccc2)C(=O)N1)[C@H](C)O)C(N)=O [(13)] (H-[dR][dK][dC]G[dF][dC][dW][dT][dW][dV]-NH2; disulfide 3-6)
- IC50 [2]: 50 µM
- ring closure, yield of all isomers ([1]; from CC(C)[C@@H](NC(=O)[C@@H](Cc1c[nH]c2ccccc12)NC(=O)[C@H](NC(=O)[C@@H](Cc1c[nH]c2ccccc12)NC(=O)[C@@H](CS)NC(=O)[C@@H](Cc1ccccc1)NC(=O)CNC(=O)[C@@H](CS)NC(=O)[C@@H](CCCCN)NC(=O)[C@H](N)CCCNC(=N)N)[C@H](C)O)C(N)=O, DMSO, 0.242 mM, 16.0 h): 10.7%

Compound: CC(C)[C@@H](NC(=O)[C@@H](Cc1c[nH]c2ccccc12)NC(=O)[C@H](NC(=O)[C@@H](Cc1c[nH]c2ccccc12)NC(=O)[C@H]1CSSC[C@@H](NC(=O)[C@@H](CCCCN)NC(=O)[C@H](N)CCCNC(=N)N)C(=O)N[C@@H](Cc2ccccc2)C(=O)NCC(=O)N1)[C@H](C)O)C(N)=O [(18)] (H-[dR][dK][dC]FG[dC][dW][dT][dW][dV]-NH2; disulfide 3-6)
- IC50 [2]: 49 µM
- ring closure, yield of all isomers ([1]; from CC(C)[C@@H](NC(=O)[C@@H](Cc1c[nH]c2ccccc12)NC(=O)[C@H](NC(=O)[C@@H](Cc1c[nH]c2ccccc12)NC(=O)[C@@H](CS)NC(=O)CNC(=O)[C@H](Cc1ccccc1)NC(=O)[C@@H](CS)NC(=O)[C@@H](CCCCN)NC(=O)[C@H](N)CCCNC(=N)N)[C@H](C)O)C(N)=O, DMSO, 0.253 mM): 13.7%
- ring closure, yield of all isomers ([1]; from CC(C)[C@@H](NC(=O)[C@@H](Cc1c[nH]c2ccccc12)NC(=O)[C@H](NC(=O)[C@@H](Cc1c[nH]c2ccccc12)NC(=O)[C@@H](CS)NC(=O)CNC(=O)[C@H](Cc1ccccc1)NC(=O)[C@@H](CS)NC(=O)[C@@H](CCCCN)NC(=O)[C@H](N)CCCNC(=N)N)[C@H](C)O)C(N)=O, DMSO, 0.253 mM, 16.0 h): 13.7%

Now from value to compound, other results behind:

- IC50 [2]: 41 µM
Compound: CC[C@@H](C)[C@H]1NC(=O)[C@H](NC(=O)[C@H](N)CCCNC(=N)N)CSSC[C@H](C(=O)N[C@@H](C(=O)N[C@H](Cc2c[nH]c3ccccc23)C(=O)N[C@@H](C(=O)N[C@H](Cc2c[nH]c3ccccc23)C(=O)N[C@@H](C(N)=O)C(C)C)[C@H](C)O)[C@H](C)CC)NC(=O)CNC1=O [(4)] (H-[dR][dC][dI]G[dC][dI][dW][dT][dW][dV]-NH2; disulfide 2-5)
- ring closure, yield of all isomers ([1]; from CC[C@@H](C)[C@@H](NC(=O)[C@@H](CS)NC(=O)[C@H](N)CCCNC(=N)N)C(=O)NCC(=O)N[C@H](CS)C(=O)N[C@@H](C(=O)N[C@H](Cc1c[nH]c2ccccc12)C(=O)N[C@@H](C(=O)N[C@H](Cc1c[nH]c2ccccc12)C(=O)N[C@@H](C(N)=O)C(C)C)[C@H](C)O)[C@H](C)CC, DMSO, 0.405 mM, 16.0 h): 43.1%

- IC50 [2]: 3 µM
Compound: CC(C)[C@H](NC(=O)[C@H](Cc1c[nH]c2ccccc12)NC(=O)[C@@H](NC(=O)[C@H](Cc1c[nH]c2ccccc12)NC(=O)[C@@H]1CSSC[C@H](NC(=O)[C@H](CCCCN)NC(=O)[C@@H](N)CCCNC(=N)N)C(=O)NCC(=O)NCC(=O)N1)[C@@H](C)O)C(N)=O [(9)] (H-RKCGGCWTWV-NH2; disulfide 3-6)
- ring closure, yield of all isomers ([1]; from CC(C)[C@H](NC(=O)[C@H](Cc1c[nH]c2ccccc12)NC(=O)[C@@H](NC(=O)[C@H](Cc1c[nH]c2ccccc12)NC(=O)[C@H](CS)NC(=O)CNC(=O)CNC(=O)[C@H](CS)NC(=O)[C@H](CCCCN)NC(=O)[C@@H](N)CCCNC(=N)N)[C@@H](C)O)C(N)=O, DMSO, 0.456 mM, 16.0 h): 4.4%

- IC50 [2]: 7 µM
Compound: CC(C)[C@@H](NC(=O)[C@@H](Cc1c[nH]c2ccccc12)NC(=O)[C@H](NC(=O)[C@@H](Cc1c[nH]c2ccccc12)NC(=O)[C@H]1CSSC[C@@H](NC(=O)[C@@H](CCCCN)NC(=O)[C@H](N)CCCNC(=N)N)C(=O)N[C@H](C)C(=O)N[C@@H](Cc2ccccc2)C(=O)N1)[C@H](C)O)C(N)=O [(11)] (H-[dR][dK][dC][dA]F[dC][dW][dT][dW][dV]-NH2; disulfide 3-6)
- ring closure, yield of all isomers ([1]; from CC(C)[C@@H](NC(=O)[C@@H](Cc1c[nH]c2ccccc12)NC(=O)[C@H](NC(=O)[C@@H](Cc1c[nH]c2ccccc12)NC(=O)[C@@H](CS)NC(=O)[C@H](Cc1ccccc1)NC(=O)[C@@H](C)NC(=O)[C@@H](CS)NC(=O)[C@@H](CCCCN)NC(=O)[C@H](N)CCCNC(=N)N)[C@H](C)O)C(N)=O, air, Cu wire, dilute AcOH/NH4OH pH 8.5, 3.08 mM): 2.4%

- IC50 [2]: 48 µM
Compound: CC(C)[C@@H](NC(=O)[C@@H](Cc1c[nH]c2ccccc12)NC(=O)[C@H](NC(=O)[C@@H](Cc1c[nH]c2ccccc12)NC(=O)[C@H]1CSSC[C@@H](NC(=O)[C@@H](CCCCN)NC(=O)[C@H](N)CCCNC(=N)N)C(=O)N[C@H](Cc2ccccc2)C(=O)NCC(=O)N1)[C@H](C)O)C(N)=O [(12)] (H-[dR][dK][dC][dF]G[dC][dW][dT][dW][dV]-NH2; disulfide 3-6)
- ring closure, yield of all isomers ([1]; from CC(C)[C@@H](NC(=O)[C@@H](Cc1c[nH]c2ccccc12)NC(=O)[C@H](NC(=O)[C@@H](Cc1c[nH]c2ccccc12)NC(=O)[C@@H](CS)NC(=O)CNC(=O)[C@@H](Cc1ccccc1)NC(=O)[C@@H](CS)NC(=O)[C@@H](CCCCN)NC(=O)[C@H](N)CCCNC(=N)N)[C@H](C)O)C(N)=O, DMSO, 0.255 mM, 16.0 h): 18.7%

- IC50 [2]: 23 µM
Compound: CC(C)[C@@H](NC(=O)[C@@H](Cc1c[nH]c2ccccc12)NC(=O)[C@H](NC(=O)[C@@H](Cc1c[nH]c2ccccc12)NC(=O)[C@H]1CSSC[C@@H](NC(=O)[C@@H](CCCCN)NC(=O)[C@H](N)CCCNC(=N)N)C(=O)NCCCCC(=O)N1)[C@H](C)O)C(N)=O [(21)] (H-[dR][dK][dC][Ava][dC][dW][dT][dW][dV]-NH2; disulfide 3-5)
- ring closure, yield of all isomers ([1]; from CC(C)[C@@H](NC(=O)[C@@H](Cc1c[nH]c2ccccc12)NC(=O)[C@H](NC(=O)[C@@H](Cc1c[nH]c2ccccc12)NC(=O)[C@@H](CS)NC(=O)CCCCNC(=O)[C@@H](CS)NC(=O)[C@@H](CCCCN)NC(=O)[C@H](N)CCCNC(=N)N)[C@H](C)O)C(N)=O, DMSO, 0.241 mM, 16.0 h): 13.2%

- IC50 [2]: 17 µM
Compound: CC(C)[C@@H](NC(=O)[C@@H](Cc1c[nH]c2ccccc12)NC(=O)[C@H](NC(=O)[C@@H](Cc1c[nH]c2ccccc12)NC(=O)[C@H]1CSSC[C@@H](NC(=O)[C@@H](CCCCN)NC(=O)[C@H](N)CCCNC(=N)N)C(=O)NCC(=O)NCC(=O)N1)[C@H](C)O)C(N)=O [(25)] (H-[dR][dK][dC]GG[dC][dW][dT][dW][dV]-NH2; disulfide 3-6)
- ring closure, yield of all isomers ([1]; from CC(C)[C@@H](NC(=O)[C@@H](Cc1cn(C=O)c2ccccc12)NC(=O)[C@H](NC(=O)[C@@H](Cc1cn(C=O)c2ccccc12)NC(=O)[C@@H](CS)NC(=O)CNC(=O)CNC(=O)[C@@H](CS)NC(=O)[C@@H](CCCCN)NC(=O)[C@H](N)CCCNC(=N)N)[C@H](C)O)C(N)=O, DMSO, 1.4 mM, 16.0 h, 2 steps): 2.4%
